Assay results reported in US9062048B2, “Cyclohexyl-azetidinyl antagonists of CCR2” (Janssen Pharmaceutica NV, priority 2010, dated 2015).

What follows are compounds tested against CCR2 (Homo sapiens (Human), UniProt P41597) (assay: MCP-1 Receptor Binding Assay in THP-1 Cells). Conditions: 0.5 nM 125I labeled MCP-1, 2 hours at 30° C., read-out: Inhibition of MCP-1 Binding IC50 MCP1B.
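Further: THP-1 is a human monocytic cell line, and nonspecific binding was defined with 1 µM unlabeled MCP-1.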

CCR2, sequence (P41597 whole entry): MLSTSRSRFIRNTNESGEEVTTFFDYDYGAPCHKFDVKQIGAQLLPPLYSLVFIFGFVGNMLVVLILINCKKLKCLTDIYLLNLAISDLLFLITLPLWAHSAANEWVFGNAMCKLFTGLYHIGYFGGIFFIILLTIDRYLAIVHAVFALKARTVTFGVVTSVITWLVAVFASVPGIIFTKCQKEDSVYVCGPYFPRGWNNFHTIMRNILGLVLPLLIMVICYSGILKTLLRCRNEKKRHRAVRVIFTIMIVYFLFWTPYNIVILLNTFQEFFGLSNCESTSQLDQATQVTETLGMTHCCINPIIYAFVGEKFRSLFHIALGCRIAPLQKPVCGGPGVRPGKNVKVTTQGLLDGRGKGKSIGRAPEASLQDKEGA

| IC50 [nM] | SMILES |
| --- | --- |
| 280 | CC(C)C(=O)NC[C@H]1CC[C@@H](N2CC(NC(=O)CNc3ncnc4ccc(C(F)(F)F)cc34)C2)CC1 [Example 114] |
| 340 | CC(=O)N(C[C@H]1CC[C@@H](N2CC(NC(=O)CNc3ncnc4ccc(C(F)(F)F)cc34)C2)CC1)C(C)C [Example 115] |
| 240 | NC[C@H]1CC[C@@H](N2CC(NC(=O)CNc3ncnc4ccc(C(F)(F)F)cc34)C2)CC1 [Example 116, N-(1-((1s,4s)-4-(aminomethyl)cyclohexyl)azetidin-3-yl)-2-((6-(trifluoromethyl)quinazolin-4-yl)amino)acetamide] |
| 100 | CC(C)[C@H]1CC[C@@H](N2CC(NC(=O)CNc3ncnc4ccc(C(F)(F)F)cc34)C2)CC1 [Example 117, N-(1-((1s,4s)-4-isopropylcyclohexyl)azetidin-3-yl)-2-((6-(trifluoromethyl)quinazolin-4-yl)amino)acetamide] |
| 85 | [2H][C@]1(N2CC(NC(=O)CNc3ncnc4ccc(C(F)(F)F)cc34)C2)CC[C@@H](C(C)C)CC1 [Example 118, N-(1-deutero-1-((1s,4s)-4-isopropylcyclohexyl)azetidin-3-yl)-2-((6-(trifluoromethyl)quinazolin-4-yl)amino)acetamide] |
| 82 | CC1CCC(N2CC(NC(=O)CNc3ncnc4ccc(C(F)(F)F)cc34)C2)CC1 (stereo not shown) [Example 119, N-(1-(4-methylcyclohexyl)azetidin-3-yl)-2-((6-(trifluoromethyl)quinazolin-4-yl)amino)acetamide] |
| 83 | CCC(OC)[C@H]1CC[C@@H](N2CC(NC(=O)CNc3ncnc4ccc(C(F)(F)F)cc34)C2)CC1 (stereo partly shown) [Example 120, N-(1-((1s,4s)-4-(1-methoxypropyl)cyclohexyl)azetidin-3-yl)-2-((6-(trifluoromethyl)quinazolin-4-yl)amino)acetamide] |
| 98 | COCC[C@H]1CC[C@@H](N2CC(NC(=O)CNc3ncnc4ccc(C(F)(F)F)cc34)C2)CC1 [Example 121, N-(1-((1s,4s)-4-(2-methoxyethyl)cyclohexyl)azetidin-3-yl)-2-((6-(trifluoromethyl)quinazolin-4-yl)amino)acetamide] |
| 120 | CCOC(=O)CC1CCC(N2CC(NC(=O)CNc3ncnc4ccc(C(F)(F)F)cc34)C2)CC1 (stereo not shown) [Example 122] |
| 130 | O=C(CNc1ncnc2ccc(C(F)(F)F)cc12)NC1CN(C2CCC(C(F)(F)F)CC2)C1 (stereo not shown) [Example 123, N-(1-(4-(trifluoromethyl)cyclohexyl)azetidin-3-yl)-2-((6-(trifluoromethyl)quinazolin-4-yl)amino)acetamide] |
| 210 | CN(C)C(=O)OC[C@H]1CC[C@@H](N2CC(NC(=O)CNc3ncnc4ccc(C(F)(F)F)cc34)C2)CC1 [Example 124, ((1s,4s)-4-(3-(2-((6-(trifluoromethyl)quinazolin-4-yl)amino)acetamido)azetidin-1-yl)cyclohexyl)methyl dimethylcarbamate] |
| 220 | CC(C)(C)OC(=O)NC1CCC(N2CC(NC(=O)CNc3ncnc4ccc(C(F)(F)F)cc34)C2)CC1 (stereo not shown) [Example 125, tert-butyl (4-(3-(2-((6-(trifluoromethyl)quinazolin-4-yl)amino)acetamido)azetidin-1-yl)cyclohexyl)carbamate] |
| 91 | CON(C)C(=O)C1CCC(N2CC(NC(=O)CNc3ncnc4ccc(C(F)(F)F)cc34)C2)CC1 (stereo not shown) [Example 126] |
| 200 | CCNC(=O)C1CCC(N2CC(NC(=O)CNc3ncnc4ccc(C(F)(F)F)cc34)C2)CC1 (stereo not shown) [Example 127, N-ethyl-4-(3-(2-((6-(trifluoromethyl)quinazolin-4-yl)amino)acetamido)azetidin-1-yl)cyclohexanecarboxamide] |
| 360 | CN(C)C(=O)[C@H]1CC[C@@H](N2CC(NC(=O)CNc3ncnc4ccc(C(F)(F)F)cc34)C2)CC1 [Example 128, (1s,4s)-N,N-dimethyl-4-(3-(2-((6-(trifluoromethyl)quinazolin-4-yl)amino)acetamido)azetidin-1-yl)cyclohexanecarboxamide] |
| 390 | COc1ccc(CNC(=O)C2CCC(N3CC(NC(=O)CNc4ncnc5ccc(C(F)(F)F)cc45)C3)CC2)c(OC)c1 (stereo not shown) [Example 129, N-(2,4-dimethoxybenzyl)-4-(3-(2-((6-(trifluoromethyl)quinazolin-4-yl)amino)acetamido)azetidin-1-yl)cyclohexanecarboxamide] |
| 1000 | O=C(CNc1ncnc2ccc(C(F)(F)F)cc12)NC1CN([C@H]2CC[C@@H](C(=O)N3CCCC3)CC2)C1 [Example 130, N-(1-((1s,4s)-4-(pyrrolidine-1-carbonyl)cyclohexyl)azetidin-3-yl)-2-((6-(trifluoromethyl)quinazolin-4-yl)amino)acetamide] |

| IC50 [nM] | SMILES |
| --- | --- |
| 300 | O=C(CNc1ncnc2ccc(C(F)(F)F)cc12)NC1CN([C@H]2CC[C@@H](N3CCC(F)(F)C3)CC2)C1 [Example 131, N-(1-((1s,4s)-4-(3,3-difluoropyrrolidin-1-yl)cyclohexyl)azetidin-3-yl)-2-((6-(trifluoromethyl)quinazolin-4-yl)amino)acetamide] |
| 190 | O=C(CNc1ncnc2ccc(C(F)(F)F)cc12)NC1CN([C@H]2CC[C@@H](N3CCOCC3)CC2)C1 [Example 132, N-(1-((1s,4s)-4-morpholinocyclohexyl)azetidin-3-yl)-2-((6-(trifluoromethyl)quinazolin-4-yl)amino)acetamide] |
| 200 | O=C(CNc1ncnc2ccc(C(F)(F)F)cc12)NC1CN([C@H]2CC[C@@H](N3CCSCC3)CC2)C1 [Example 133, N-(1-((1s,4s)-4-thiomorpholinocyclohexyl)azetidin-3-yl)-2-((6-(trifluoromethyl)quinazolin-4-yl)amino)acetamide] |
| 72 | O=C(CNc1ncnc2ccc(C(F)(F)F)cc12)NC1CN([C@H]2CC[C@@H](N3CCS(=O)(=O)CC3)CC2)C1 [Example 134, N-(1-((1s,4s)-4-(1,1-dioxidothiomorpholino)cyclohexyl)azetidin-3-yl)-2-((6-(trifluoromethyl)quinazolin-4-yl)amino)acetamide] |
| 2980 | CCC(NC(=O)C(F)(F)F)[C@H]1CC[C@@H](N2CC(NC(=O)CNc3ncnc4ccc(C(F)(F)F)cc34)C2)CC1 (stereo partly drawn) [Example 135, 2,2,2-trifluoro-N—((S)-1-((1s,4R)-4-(3-(2-((6-(trifluoromethyl)quinazolin-4-yl)amino)acetamido)azetidin-1-yl)cyclohexyl)propyl)acetamide] |
| 40 | CCC(N)[C@H]1CC[C@@H](N2CC(NC(=O)CNc3ncnc4ccc(C(F)(F)F)cc34)C2)CC1 (stereo partly drawn) [Example 136, N-(1-((1R,4s)-4-((S)-1-aminopropyl)cyclohexyl)azetidin-3-yl)-2-((6-(trifluoromethyl)quinazolin-4-yl)amino)acetamide] |
| 5040 | CCC([C@H]1CC[C@@H](N2CC(NC(=O)CNc3ncnc4ccc(C(F)(F)F)cc34)C2)CC1)N(C)C (stereo partly drawn) [Example 137, N-(1-((1S,4s)-4-((R)-1-(dimethylamino)propyl)cyclohexyl)azetidin-3-yl)-2-(6-(trifluoromethyl)quinazolin-4-ylamino)acetamide] |
| 1900 | CCC(NC(C)=O)[C@H]1CC[C@@H](N2CC(NC(=O)CNc3ncnc4ccc(C(F)(F)F)cc34)C2)CC1 (stereo partly drawn) [Example 138, N-(1-((1R,4s)-4-((S)-1-acetamidopropyl)cyclohexyl)azetidin-3-yl)-2-((6-(trifluoromethyl)quinazolin-4-yl)amino)acetamide] |
| 1450 | CCC(NS(C)(=O)=O)[C@H]1CC[C@@H](N2CC(NC(=O)CNc3ncnc4ccc(C(F)(F)F)cc34)C2)CC1 (stereo partly drawn) [Example 139, N-(1-((1R,4s)-4-((S)-1-(methylsulfonamido)propyl)cyclohexyl)azetidin-3-yl)-2-((6-(trifluoromethyl)quinazolin-4-yl)amino)acetamide] |
| 3000 | CCC(NS(=O)(=O)C(F)(F)F)[C@H]1CC[C@@H](N2CC(NC(=O)CNc3ncnc4ccc(C(F)(F)F)cc34)C2)CC1 (stereo partly drawn) [Example 140, 2-((6-(trifluoromethyl)quinazolin-4-yl)amino)-N-(1-((1R,4s)-4-((S)-1-(trifluoromethylsulfonamido)propyl)cyclohexyl)azetidin-3-yl)acetamide] |
| 250 | CCC(NC(N)=O)[C@H]1CC[C@@H](N2CC(NC(=O)CNc3ncnc4ccc(C(F)(F)F)cc34)C2)CC1 (stereo partly drawn) [Example 141, 2((6-(trifluoromethyl)quinazolin-4-yl)amino)-N-(1-((1R,4s)-4-((S)-1-ureidopropyl)cyclohexyl)azetidin-3-yl)acetamide] |
| 13800 | CCC(NC(=O)N(C)C)[C@H]1CC[C@@H](N2CC(NC(=O)CNc3ncnc4ccc(C(F)(F)F)cc34)C2)CC1 (stereo partly drawn) [Example 143, N-(1-((1R,4s)-4-((S)-1-(3,3-dimethylureido)propyl)cyclohexyl)azetidin-3-yl)-2-((6-(trifluoromethyl)quinazolin-4-yl)amino)acetamide] |
| 640 | CCC(NC(=O)OC)[C@H]1CC[C@@H](N2CC(NC(=O)CNc3ncnc4ccc(C(F)(F)F)cc34)C2)CC1 (stereo partly drawn) [Example 144, methyl ((S)-1-((1s,4R)-4-(3-(2-((6-(trifluoromethyl)quinazolin-4-yl)amino)acetamido)azetidin-1-yl)cyclohexyl)propyl)carbamate] |
| 9.2 | O=C(CNc1cnnc2ccc(C(F)(F)F)cc12)NC1CN([C@H]2CC[C@@](O)(c3cncs3)CC2)C1 [Example 147, N-(1-((1r,4r)-4-hydroxy-4-(thiazol-5-yl)cyclohexyl)azetidin-3-yl)-2-((6-(trifluoromethyl)cinnolin-4-yl)amino)acetamide] |
| > 25000 | CC[C@H](O)[C@H]1CC[C@H](N2CC(NC(=O)CNc3nccc4ncc(C(F)(F)F)cc34)C2)CC1 [Example 151] |
| 530 | CCC(O)[C@H]1CC[C@@H](N2CC(NC(=O)CNc3cnnc4ccc(C(F)(F)F)cc34)C2)CC1 (stereo partly shown) [Example 152, N-(1-(4-(1-hydroxypropyl)cyclohexyl)azetidin-3-yl)-2-(6-(trifluoromethyl)cinnolin-4-ylamino)acetamide] |
| 6080 | CC[C@@H](O)[C@H]1CC[C@H](N2CC(NC(=O)CNc3nncc4ccc(C(F)(F)F)cc34)C2)CC1 [Example 154, N-(1-((1R,4r)-4-((R)-1-hydroxypropyl)cyclohexyl)azetidin-3-yl)-2-((7-(trifluoromethyl)phthalazin-1-yl)amino)acetamide] |
